Test results: patent publication US20110183978A1, “Phenylpyri(mi)dinylazoles” (Bayer CropScience AG, priority 2009, published 2011)
Where two headings read alike, the source gives them in different places.

Columns and labels:
Cochliobolus miyabeanus = test: Example X: in vivo test on Cochliobolus miyabeanus (brown spot disease, rice/protective); conditions: Bipolaris oryzae, 96 h, read-out: % Activity level
Plasmopara viticola = test: Example N: in vivo test on Plasmopara viticola (downy mildew, vine/protective); conditions: 144 h, vine, protective, assessment 6 days after inoculation, read-out: % Wirkungsgrad
In short: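 Protective test: young vine plants were sprayed with active substance diluted in water from a solvent/alkylaryl polyglycol ether emulsifier concentrate at the stated dosage, then inoculated with P. viticola. Plants were moistened and kept 1 day in an incubation cabin, and assessed 6 days after inoculation.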

Fusarium proliferatum = test: Example I: production of fumonisin FB1 by Fusarium proliferatum (microtitre plates); type: cell-based; conditions: 120 h
[1] = tested on: Fusarium nivale (var. majus); test: whole plant or invertebrate; type: in vivo; conditions: Microdochium nivale, in Triticum aestivum, 120 h, read-out: % Wirkungsgrad (activity level)
Venturia inaequalis = test: Example O: in vivo test on Venturia inaequalis (apple scab/protective); conditions: 240 h, protective, assessment 10 days after inoculation, read-out: % Wirkungsgrad
In short: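 Protective test: active substance mixed with solvent and alkylaryl polyglycol ether emulsifier, diluted with water, and sprayed on young plants at the stated dosage before Venturia inaequalis inoculation. Scab assessed 10 days after inoculation.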

Septoria tritici = test: Example R: in vivo test on Septoria tritici (leaf blotch in wheat/protective); conditions: Zymoseptoria tritici, 504 h, wheat, protective, 1000 ppm active substance, assessed 21 days after inoculation, read-out: % Wirkungsgrad (activity level)
In short: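 Protective test: young wheat plants sprayed with compound in N,N-dimethylacetamide/alkylaryl polyglycol ether emulsifier diluted in water, dried, then inoculated with Septoria tritici spore suspension. Disease assessed 21 days after inoculation.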

Sphaerotheca fuliginea = test: Example D: in vivo test on Sphaerotheca fuliginea (powdery mildew on cucumber); conditions: Podosphaera fuliginea, 288 h, cucumber plants sprayed 24 hours before inoculation, scored after 12 days, read-out: % Wirkungsgrad
In short: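 Cucumber plants at cotyledon stage Z10 were sprayed with the compound suspended in acetone/Tween/DMSO diluted with water. After 24 hours they were inoculated with Sphaerotheca fuliginea spores (100,000/ml) and incubated at ca. 20/25° C. and 60/70% RH. Disease was scored after 12 days against untreated sprayed controls.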

Botrytis cinerea [2] = test: Example B: in vivo test on Botrytis cinerea (grey mould on cucumbers); conditions: cucumber plants sprayed 24 hours before inoculation, scored after 5-7 days, read-out: % Wirkungsgrad
In short: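 Cucumber plants (Vert petit de Paris) sprayed at cotyledon stage Z11 with aqueous suspension of compound (acetone/Tween/DMSO), then inoculated with spores from 15-day-old culture in gelatine/fructose nutrient solution. Kept 5-7 days at 15-11° C, then scored against untreated sprayed controls.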

Botrytis cinerea [3] = test: Example P: in vivo test on Botrytis cinerea (gray mould on bean/protective); conditions: 48 h, bean, protective, 250 ppm active substance, assessed 2 days after inoculation, read-out: % Wirkungsgrad (activity level)
In short: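 Protective test: young bean plants sprayed with the active substance preparation (emulsifier-based concentrate diluted in water) at the stated dosage. Once dry, each leaf received 2 agar pieces bearing Botrytis cinerea. Infection blotch size assessed 2 days after inoculation.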

Pyricularia oryzae = test: whole plant or invertebrate; type: in vivo; conditions: 120 h, read-out: % Activity level
Pyrenophora teres = test: Example E: in vivo test on Pyrenophora teres (barley net blotch disease); conditions: Pyrenophora teres, 288 h, barley plants sprayed 24 hours before inoculation, scored after 12 days, read-out: % Wirkungsgrad
Method: In Vivo Test on Pyrenophora Teres (Barley Net Blotch Disease) An aqueous suspension of the active substance was prepared by homogenization of a mixture of acetone/Tween/dimethyl sulphoxide and subsequent dilution with water to the desired concentration. Barley plants (variety: Plaisant) are sown in cultivation dishes on a peat-pozzolanic earth substrate (50/50) at 12° C. and sprayed at the first-leaf stage (10 cm size) with the aqueous suspension described above. As a control, plants are sprayed with an aqueous solution with no active substance. After 24 hours the plants are inoculated by spraying with an aqueous suspension of Pyrenophora teres spores (12,000 spores per ml). The spores are derived from a 12 day-old culture. […] After 12 days they are scored in comparison with the control plants.

[4] = Fusarium proliferatum growth, OD 620, 5 days, read-out: % Inhibition des Pilzwachstums bei 50 μM
[5] = Fusarium proliferatum, 5 days at 20° C., HPLC-MS/MS, read-out: % Inhibition der FB1 produktion bei 50 μM

SMILES | pest or weed control at 250 ppm (Cochliobolus miyabeanus) [%] | pest or weed control at 100 ppm (Plasmopara viticola) [%] | inhibition at 50 µM (Fusarium proliferatum; [4]) [%] | inhibition at 50 µM (Fusarium proliferatum; [5]) [%] | pest or weed control at 1000 ppm [1] [%] | pest or weed control at 100 ppm (Venturia inaequalis) [%] | pest or weed control at 1000 ppm (Septoria tritici) [%] | pest or weed control at 500 ppm (Sphaerotheca fuliginea) [%] | pest or weed control at 500 ppm (Botrytis cinerea [2]) [%] | pest or weed control at 250 ppm (Botrytis cinerea [3]) [%] | pest or weed control at 250 ppm (Pyricularia oryzae) [%] | pest or weed control at 500 ppm (Pyrenophora teres) [%]
CC(C)C(=O)Nc1cc(-c2cn(C(C)C)nc2-c2ccc(F)cc2)ccn1 [Compound 84] | 93 | 98 | 88 | 100 | 100 | 100 | 100 | 100 | 100 | 99 | 85 | 
CC(C)n1cc(-c2ccnc(NC(=O)C3CC3)c2)c(-c2ccc(F)cc2)n1 [Compound 86] | 80 | 84 | 96 | 100 | 100 | 96 | 100 | 100 | 100 | 100 | 93 | 81
CC(C)Cn1cc(-c2ccncc2)c(-c2ccc(F)cc2)n1 [Compound 1] | 85 | 100 |  |  | 92 | 99 | 100 | 100 | 100 | 99 | 80 | 96
CCC(=O)Nc1cc(-c2cn(C(C)C)nc2-c2ccc(F)cc2)ccn1 [Compound 85] | 90 | 94 | 95 | 100 | 100 | 88 | 100 | 100 | 100 | 100 | 80 | 75
